Assay results as given in ChEMBL document CHEMBL4118184, “Design, synthesis and biological evaluation of novel pyrimidinedione derivatives as DPP-4 inhibitors” (Bioorg Med Chem Lett, 2018).
Activity calls are given as the source filed them. No cut-off for these calls is given here.

Test system: Mus musculus
Assay: Toxicity in BKS db/db mouse assessed as effect on water intake at 100 mg/kg/day up to 4 weeks
Format: organism-based
Conditions: in vivo, 672 h

SMILES | Activity
COc1ccc(Cn2c(=O)cc(N3CCC[C@@H](N)C3)n(Cc3cc(F)ccc3C#N)c2=O)cc1OC.O=C(O)CCC(=O)O | Toxic
CN(C)C(=N)N=C(N)N [METFORMIN] | Toxic

Test system: Mus musculus
Assay: Toxicity in BKS db/db mouse assessed as effect on body weight at 100 mg/kg/day up to 4 weeks
Format: organism-based
Conditions: in vivo, 672 h

SMILES | Activity
COc1ccc(Cn2c(=O)cc(N3CCC[C@@H](N)C3)n(Cc3cc(F)ccc3C#N)c2=O)cc1OC.O=C(O)CCC(=O)O | Non-Toxic
CN(C)C(=N)N=C(N)N [METFORMIN] | Non-Toxic

Test system: Mus musculus
Assay: Effect on abdominal fat content in BKS db/db mouse assessed as reduction in abdominal fat ratio at 100 mg/kg/day for 4 weeks
Format: functional, organism-based
Conditions: not given

SMILES | Activity
COc1ccc(Cn2c(=O)cc(N3CCC[C@@H](N)C3)n(Cc3cc(F)ccc3C#N)c2=O)cc1OC [listing 1 of 2 here] | inactive
CN(C)C(=N)NC(=N)N | inactive

Test system: Mus musculus
Assay: Antihyperglycemic activity in BKS db/db mouse assessed as reduction in blood glucose level at 100 mg/kg/day for 4 weeks by glucometric analysis
Format: functional, organism-based
Conditions: not given

SMILES | Activity
COc1ccc(Cn2c(=O)cc(N3CCC[C@@H](N)C3)n(Cc3cc(F)ccc3C#N)c2=O)cc1OC [listing 1 of 2 here] | Active
CN(C)C(=N)NC(=N)N | Active

Test system: not listed separately
Assay: Lipophilicity, log P of the compound
Format: physicochemical
Conditions: octanol/water

SMILES | logP
Cc1cc(C)cc(Cn2c(=O)cc(N3CCC[C@@H](N)C3)n(Cc3cc(F)ccc3C#N)c2=O)c1 | 3.89
CCCCCCCCCCn1c(=O)cc(N2CCC[C@@H](N)C2)n(Cc2cc(F)ccc2C#N)c1=O | 4.93
COc1cc(Cn2c(=O)cc(N3CCC[C@@H](N)C3)n(Cc3cc(F)ccc3C#N)c2=O)cc(Br)c1OC | 3.49
CC#CCn1c(N2CCC[C@@H](N)C2)cc(=O)n(CCCCCC)c1=O | 2.15
CC#CCn1c(N2CCC[C@@H](N)C2)cc(=O)n(CCCCCCCCCC)c1=O | 3.82
CC#CCn1c(N2CCC[C@@H](N)C2)cc(=O)n(Cc2cc(F)cc(F)c2)c1=O | 2.12
COc1ccc(Cn2c(=O)cc(N3CCC[C@@H](N)C3)n(Cc3cc(F)ccc3C#N)c2=O)cc1OC [listing 2 of 2 here] | 2.66
CCCCCCn1c(=O)cc(N2CCC[C@@H](N)C2)n(Cc2cc(F)ccc2C#N)c1=O | 3.26
N#Cc1ccc(F)cc1Cn1c(N2CCC[C@@H](N)C2)cc(=O)n(Cc2cc(F)cc(F)c2)c1=O | 3.23

Results, then the compound that gave them:

logP | SMILES
2.78 | CC#CCn1c(N2CCC[C@@H](N)C2)cc(=O)n(Cc2cc(C)cc(C)c2)c1=O
1.55 | CC#CCn1c(N2CCC[C@@H](N)C2)cc(=O)n(Cc2ccc(OC)c(OC)c2)c1=O
3.21 | CC#CCn1c(N2CCC[C@@H](N)C2)cc(=O)n(Cc2cc(OC)c(OC)c(Br)c2Br)c1=O
2.38 | CC#CCn1c(N2CCC[C@@H](N)C2)cc(=O)n(Cc2cc(Br)c(OC)c(OC)c2)c1=O
0.9 | CC#CCn1c(N2CCC[C@@H](N)C2)cc(=O)n(CCC)c1=O
4.32 | COc1cc(Cn2c(=O)cc(N3CCC[C@@H](N)C3)n(Cc3cc(F)ccc3C#N)c2=O)c(Br)c(Br)c1OC
5.15 | COc1c(Br)c(Br)c(Cn2c(=O)cc(N3CCC[C@@H](N)C3)n(Cc3cc(F)ccc3C#N)c2=O)c(Br)c1OC
0.41 | CC#CCn1c(N2CCC[C@@H](N)C2)cc(=O)n(CC)c1=O
4.04 | CC#CCn1c(N2CCC[C@@H](N)C2)cc(=O)n(Cc2c(Br)c(Br)c(OC)c(OC)c2Br)c1=O
